System: dog STING (dSTING)
Assay: Dog differential scanning fluorimetry (DSF) assay, thermal shift of dog STING protein
Assay type: binding
Conditions: DSF (dDSF); 100 μM compound, 3 μM dog STING protein; Tm with ligand minus Tm of protein alone
From the text: The protein used for the biophysical experiments was a recombinant dog STING protein comprising its cytosolic cGAMP binding ectodomain. A codon optimized DNA sequence (for expression in Escherichia coli) encoding amino acid residues 149 to 375 of dog STING was synthesized by GeneArt (Regensburg, Germany) and inserted into a pET17b E. coli expression vector. The protein construct encodes an N-terminal 8×His-tag followed by tobacco etch virus protease (TEV) cleavage site and the above STING gene sequence. The resulting protein sequence for the used dog STING protein (SEQ ID No. 1) is listed below:
For expression of the above recombinant dog STING, the construct was transformed into E. coli BL21 DE3 strain and grown in shake flasks in LB-medium at 15° C. Expression was induced by addition of isopropyl β-D-1-thiogalactopyranoside to a final concentration of 1 mM and cultures shaken overnight. Cell pellets were centrifuged and stored at −70° C. until further use. Protein was purified by cell thawing in lysis buffer (20 mM TRIS-HCl, pH 8, 500 mM NaCl, 1 mM DTT, 0.5 mg/ml lysozyme, Complete Protease Inhibitor (Roche) and DNase (Roche)), followed by metal affinity purification using Ni-NTA resins and elution buffer consisting of 20 mM TRIS-HCl, pH 8, 500 mM NaCl, 1 mM DTT, 300 mM imidazole. Cleavage of the His-Tag using TEV-protease took place during dialysis in size exclusion buffer (20 mM TRIS-HCl, pH 8, 100 mM NaCl, 1 mM DTT) over night. To further purify the target protein a reverse Nickel affinity column was used and the flow through was applied to a size exclusion chromatography. The peak fraction was collected and concentrated to 5 mg/mL.
Dye fluorescence is quenched in aqueous environment and increases upon association of the dye with the hydrophobic parts of the unfolding protein. […] The inflection point of the curve represents the “melting” temperature of the protein (Tm) which is calculated numerically using the Boltzmann equation.
The thermal stability of the dog STING protein was measured in assay buffer containing 20 mM Tris, 150 mM NaCl at pH7.5. The assay uses 384-Well qPCR Plates (Catalog #781358, BRAND), Microseal® ‘B’ Adhesive Seals for PCR Plates (Catalog #MSB-1001, BIO-RAD) and was run on a CFX384 Real-Time System (Bio-Rad). A DMSO stock solution of SYPRO orange (SIGMA 55692-500UL) was prepared. Compound stock solutions (10 mM in DMSO) were diluted 1:2 in DMSO to an intermediate compound concentration of 5 mM and then further diluted 1:40 in assay buffer resulting in a compound concentration of 125 μM and 2.5% DMSO. Fluorescent dye stock solution (5000×SYPRO Orange) was then mixed with target protein and buffer to a concentration of 15 μM Protein and 25×SYPRO Orange. 2 μl of this protein-dye-mixture was added to 8 μl compound solution. Final volume was 10 μL. 3-6 well positions were used as negative control (protein with 2% DMSO). The plates were prepared for duplicate measurement and centrifuged for 2 min at 1000 g. In the measurement, 160 cycles of 0.5° C. were used (temperature ramp 15 s/cycle, 15° C. to 95° C.).
Final Assay concentrations for compound characterization were 100 μM compound, 3 μM target protein, 5×SYPRO Orange, and 2% DMSO in 10 μl. All dispensing steps were performed using a HamiltonStar pipetting robot (Hamilton).
Dissociation curves were processed in Bio-Rad CFX Manager. Peak type was set to “negative”. Compound codes for screen were assigned in the plate layout.
Two replicates of TM measurements were averaged, and the standard deviation was calculated. In cases of SD>1.5° C. the measurement was repeated.
The melting point (Tm) obtained for STING protein alone was subtracted from T obtained for protein incubated with ligand to generate ΔTm values.

Compound | Delta TM
Cc1cccc2c(-c3cccc4nn(C)c(F)c34)nn(-c3ccc(N4C[C@@H]5C[C@H]4C[C@H]5C(=O)O)nc3)c12 (racemic) [Example 19, 2-(5-{3″-fluoro-2″,7-dimethyl-1H,2″H-[3,4″-biindazol]-1-yl}pyridin-2-yl)-2-azabicyclo[2.2.1]heptane-5-carboxylic acid] | 34.3 °C
Cc1cccc2c(-c3cccc4nn(C)c(F)c34)nn(-c3ccc(N4CC5CCC4CC5C(=O)O)nc3)c12 (single isomer, unassigned) [Example 20-1, 2-(5-{3'-fluoro-2',7-dimethyl-1H,2'H-[3,4'-biindazol]-1-yl}pyridin-2-yl)-2-azabicyclo[2.2.2]octane-5-carboxylic acid] | 20.9 °C
Cc1cccc2c(-c3cccc4nn(C)c(F)c34)nn(-c3ccc(N4CC5CCC4CC5C(=O)O)nc3)c12 (single isomer, unassigned) [Example 20-2, 2-(5-{3'-fluoro-2',7-dimethyl-1H,2'H-[3,4'-biindazol]-1-yl}pyridin-2-yl)-2-azabicyclo[2.2.2]octane-5-carboxylic acid] | 22.6 °C
Cc1cccc2c(-c3c(F)ccc4nn(C)cc34)nn(-c3ccc(N4CC5CCC4CC5C(=O)O)nc3)c12 (single isomer, unassigned) [Example 28-1] | 26.6 °C
Cc1cccc2c(-c3c(F)ccc4nn(C)cc34)nn(-c3ccc(N4CC5CCC4CC5C(=O)O)nc3)c12 (single isomer, unassigned) [Example 28-2] | 25.9 °C
Cc1cccc2c(-c3cc(F)cc4nn(C)cc34)nn(-c3ccc(N4C[C@@H]5C[C@H]4C[C@H]5C(=O)O)nc3)c12 (single isomer, unassigned) [Example 38-1] | 24.8 °C
Cc1cccc2c(-c3cc(F)cc4nn(C)cc34)nn(-c3ccc(N4C[C@H]5C[C@@H]4C[C@@H]5C(=O)O)nc3)c12 (single isomer, unassigned) [Example 38-2] | 23.0 °C
Cc1cccc2c(-c3c(F)cc(F)c4nn(C)cc34)nn(-c3ccc(N4CC5CCC4CC5C(=O)O)nc3)c12 (single isomer, unassigned) [Example 48-1] | 23.9 °C
Cc1cccc2c(-c3c(F)cc(F)c4nn(C)cc34)nn(-c3ccc(N4CC5CCC4CC5C(=O)O)nc3)c12 (single isomer, unassigned) [Example 48-2] | 24.6 °C
Cc1cccc2c(-c3ccc(F)c4nn(C)c(F)c34)nn(-c3ccc(N4C[C@@H]5C[C@H]4C[C@H]5C(=O)O)nc3)c12 (single isomer, unassigned) [Example 56-1] | 33.0 °C
Cc1cccc2c(-c3ccc(F)c4nn(C)c(F)c34)nn(-c3ccc(N4C[C@H]5C[C@@H]4C[C@@H]5C(=O)O)nc3)c12 (single isomer, unassigned) [Example 56-2] | 33.0 °C
Cc1cccc2c(-c3c(F)ccc4nn(C)cc34)nn(-c3ccc(N4CCOC(CC(=O)O)C4)nc3)c12 [Example 26-1, 2-[(2R)-4-(5-{5″-fluoro-2″,7-dimethyl-1H,2″H-[3,4″-biindazol]-1-yl}pyridin-2-yl)morpholin-2-yl]acetic acid] | 31.0 °C
Cc1cccc2c(-c3c(F)ccc4nn(C)cc34)nn(-c3ccc(N4CCOC(CC(=O)O)C4)nc3)c12 [Example 26-2, 2-[(2S)-4-(5-{5″-fluoro-2″,7-dimethyl-1H,2″H-[3,4″-biindazol]-1-yl}pyridin-2-yl)morpholin-2-yl]acetic acid] | 32.0 °C
CC(=O)N1CC2CCC1CN2c1ccc(-n2nc(-c3c(F)ccc4nn(C)cc34)c3cccc(C)c32)cn1 (centres unmarked) [Example 32] | 31.0 °C
Cc1cccc2c(-c3cc(F)cc4nn(C)cc34)nn(-c3ccc(N4CCC(C(=O)O)CC4)nc3)c12 [Example 33, 1-(5-{6″-fluoro-2″,7-dimethyl-1H,2″H-[3,4″-biindazol]-1-yl}pyridin-2-yl)piperidine-4-carboxylic acid] | 22.5 °C
Cc1cccc2c(-c3cc(F)cc4nn(C)cc34)nn(-c3ccc(N4CC[C@@H](CC(=O)O)C4)nc3)c12 [Example 35, 2-[(3S)-1-(5-{6″-fluoro-2″,7-dimethyl-1H,2″H-[3,4″-biindazol]-1-yl}pyridin-2-yl)pyrrolidin-3-yl]acetic acid] | 22.5 °C
Cc1cccc2c(-c3cc(F)cc4nn(C)cc34)nn(-c3ccc(N4CC[C@H](CC(=O)O)C4)nc3)c12 [Example 36, 2-[(3R)-1-(5-{6″-fluoro-2″,7-dimethyl-1H,2″H-[3,4″-biindazol]-1-yl}pyridin-2-yl)pyrrolidin-3-yl]acetic acid] | 24.0 °C
Cc1cccc2c(-c3cc(F)cc4nn(C)cc34)nn(-c3ccc(N4CCO[C@H](CC(=O)O)C4)nc3)c12 [Example 37-1, 2-[(2R)-4-(5-{6″-fluoro-2″,7-dimethyl-1H,2″H-[3,4″-biindazol]-1-yl}pyridin-2-yl)morpholin-2-yl]acetic acid] | 16.0 °C
Cc1cccc2c(-c3cc(F)cc4nn(C)cc34)nn(-c3ccc(N4CCO[C@@H](CC(=O)O)C4)nc3)c12 [Example 37-2, 2-[(2S)-4-(5-{6″-fluoro-2″,7-dimethyl-1H,2″H-[3,4″-biindazol]-1-yl}pyridin-2-yl)morpholin-2-yl]acetic acid] | 18.0 °C
Cc1cccc2c(-c3cc(F)cc4nn(C)cc34)nn(-c3ccc(N4CC5CCC4CC5C(=O)O)nc3)c12 (centres unmarked) [Example 39, 2-(5-{6″-fluoro-2″,7-dimethyl-1H,2″H-[3,4″-biindazol]-1-yl}pyridin-2-yl)-2-azabicyclo [2.2.2]octane-5-carboxylic acid] | −0.3 °C
CC(=O)N1CCN(c2ccc(-n3nc(-c4cc(F)cc5nn(C)cc45)c4cccc(C)c43)cn2)CC1 [Example 40, 1-[4-(5-{6″-fluoro-2″,7-dimethyl-1H,2″H-[3,4″-biindazol]-1-yl}pyridin-2-yl)piperazin-1-yl]ethan-1-one] | 17.8 °C
CC(=O)N1C[C@@H]2C[C@H]1CN2c1ccc(-n2nc(-c3cc(F)cc4nn(C)cc34)c3cccc(C)c32)cn1 [Example 41, 1-[(1S,4S)-5-(5-{6″-fluoro-2″,7-dimethyl-1H,2″H-[3,4″-biindazol]-1-yl}pyridin-2-yl)-2,5-diazabicyclo[2.2.1]heptan-2-yl]ethan-1-one] | 16.0 °C
CC(=O)N1C[C@H]2C[C@@H]1CN2c1ccc(-n2nc(-c3cc(F)cc4nn(C)cc34)c3cccc(C)c32)cn1 [Example 42, 1-[(1R,4R)-5-(5-{6″-fluoro-2″,7-dimethyl-1H,2″H-[3,4″-biindazol]-1-yl}pyridin-2-yl)-2,5-diazabicyclo[2.2.1]heptan-2-yl]ethan-1-one] | 15.8 °C
CC(=O)N1CC2CCC1CN2c1ccc(-n2nc(-c3cc(F)cc4nn(C)cc34)c3cccc(C)c32)cn1 (centres unmarked) [Example 43, 1-[5-(5-{6″-fluoro-2″,7-dimethyl-1H,2″H-[3,4″-biindazol]-1-yl}pyridin-2-yl)-2,5-diazabicyclo[2.2.2]octan-2-yl]ethan-1-one] | 16.0 °C
CC(=O)N1C[C@@H]2C[C@H]1CN2c1ccc(-n2nc(-c3c(F)cc(F)c4nn(C)cc34)c3cccc(C)c32)cn1 [Example 50, 1-[(1S,4S)-5-(5-{5″,7″-difluoro-2″,7-dimethyl-1H,2″H-[3,4″-biindazol]-1-yl}pyridin-2-yl)-2,5-diazabicyclo[2.2.1]heptan-2-yl]ethan-1-one] | 25.0 °C
CC(=O)N1CC2CCC1CN2c1ccc(-n2nc(-c3c(F)cc(F)c4nn(C)cc34)c3cccc(C)c32)cn1 (centres unmarked) [Example 52, 1-[5-(5-{5″,7″-difluoro-2″,7-dimethyl-1H,2″H-[3,4″-biindazol]-1-yl}pyridin-2-yl)-2,5-diazabicyclo [2.2.2]octan-2-yl]ethan-1-one] | 25.8 °C

Reference: patent publication US20240174641A1, “HETEROCYCLIC COMPOUNDS CAPABLE OF […]” (Boehringer Ingelheim International GmbH, priority 2022, published 2024)
